For test [1], the system named is Plasmodium falciparum mitogen-associated protein kinase 2 (MAPK2/MAP2). The test is described as follows: MAPK2 Kinase-Glo ATP-consumption screen. The test is classed as biochemical. The following applies: concentrations of 10–30 μM. On the procedure:
Biochemical assays were performed in white 384-well plates (Nunc). Liquid transfers were done manually with 8-channel pipets. Compounds were initially tested in a single-point screen (final concentration 1 μM). […] The catalytic activity of each kinase was considered proportional to ATP consumed, as determined from measurements of residual [ATP] with the luciferase-based reagent Kinase-Glo (Promega) following incubation. Luminescence (proportional to residual [ATP]) was measured on the plate readers FLx800 (BioTek Instruments, Winooski, VT, USA) and MicroBeta^2 (PerkinElmer, Waltham, MA, USA). Incubation times were chosen to ensure near-complete ATP depletion in the absence of inhibition, thus maximizing the difference in signal between inhibited and uninhibited wells.
Final concentrations were 1 μM ATP, 0.5 mM DTT, 1 mM MgCl2, 0.5 mg/mL BSA, and 10 μg/ml MAP2 in a buffer of 50 mM HEPES (pH 7.0). 0.5 mg/mL histone III-S served as the substrate; 100 μM AMP-PNP, an ATP analog, was used as a control inhibitor. Incubation time was 4 hours.

The target of test [2] is T1, Plasmodium falciparum calcium-dependent protein kinase 1 (CDPK1) (Plasmodium falciparum, UniProt P62344).
T1 construct: 6-Histidine (N); made in house
T1 sequence (P62344 whole entry): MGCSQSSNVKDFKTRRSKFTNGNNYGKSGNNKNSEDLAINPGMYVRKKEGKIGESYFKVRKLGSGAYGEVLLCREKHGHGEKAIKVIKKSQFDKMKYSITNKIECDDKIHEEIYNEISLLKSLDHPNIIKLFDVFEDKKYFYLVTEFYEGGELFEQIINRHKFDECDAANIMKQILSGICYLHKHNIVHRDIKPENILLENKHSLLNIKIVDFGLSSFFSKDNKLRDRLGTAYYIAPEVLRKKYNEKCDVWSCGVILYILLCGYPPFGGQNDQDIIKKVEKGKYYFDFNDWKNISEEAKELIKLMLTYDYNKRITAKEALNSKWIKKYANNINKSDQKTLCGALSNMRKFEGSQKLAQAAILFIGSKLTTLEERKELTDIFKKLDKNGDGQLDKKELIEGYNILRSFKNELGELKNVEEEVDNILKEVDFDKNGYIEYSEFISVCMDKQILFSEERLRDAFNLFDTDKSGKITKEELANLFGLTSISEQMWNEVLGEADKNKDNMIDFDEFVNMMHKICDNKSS
The test is described as follows: CDPK1 Kinase-Glo ATP-consumption screen and dose-response. The test is classed as biochemical. The following applies: hits below 1 uM; read-out: CDPK1 IC50. A digest of the protocol:
(§1)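 Single-point testing used 1 μM final compound, then dose-response, against CDPK4 and CDPK1 with Syntide-2 (40 μM) as substrate. After 90 min, reactions were halted by 5 mM EGTA, and kinase activity was inferred from depleted ATP via Kinase-Glo luminescence.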

Test [3] addresses T2, Plasmodium falciparum calcium-dependent protein kinase 4 (CDPK4) (Plasmodium falciparum, UniProt Q8IBS5).
T2 construct: 6-Histidine (N); made in house
T2 sequence (Q8IBS5 1-528): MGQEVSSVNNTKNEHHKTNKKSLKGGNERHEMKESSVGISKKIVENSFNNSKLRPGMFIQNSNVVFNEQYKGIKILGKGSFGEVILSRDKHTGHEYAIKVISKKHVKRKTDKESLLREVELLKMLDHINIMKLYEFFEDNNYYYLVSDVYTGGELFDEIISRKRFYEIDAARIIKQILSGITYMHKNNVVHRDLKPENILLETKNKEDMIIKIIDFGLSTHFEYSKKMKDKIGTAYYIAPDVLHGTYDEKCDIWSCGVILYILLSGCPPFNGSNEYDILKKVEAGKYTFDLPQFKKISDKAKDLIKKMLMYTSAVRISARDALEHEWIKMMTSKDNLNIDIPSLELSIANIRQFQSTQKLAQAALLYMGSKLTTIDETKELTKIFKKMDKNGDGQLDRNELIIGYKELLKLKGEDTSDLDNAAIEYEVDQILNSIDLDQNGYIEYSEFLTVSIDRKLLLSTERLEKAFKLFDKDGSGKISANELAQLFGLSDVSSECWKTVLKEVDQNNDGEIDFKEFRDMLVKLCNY
The test is described as follows: CDPK4 Kinase-Glo ATP-consumption screen and dose-response. The note with it: hits below 1 uM. The class given is biochemical. A digest of the protocol: as §1
A general note: Kinase-Glo reads ATP consumption through a luciferase reaction.

In test [4] the target is T3, Plasmodium falciparum protein kinase 6 (PK6) (Plasmodium falciparum, UniProt Q8IDW1).
T3 construct: 6-Histidine (N); made in house
T3 sequence (Q8IDW1 1-305): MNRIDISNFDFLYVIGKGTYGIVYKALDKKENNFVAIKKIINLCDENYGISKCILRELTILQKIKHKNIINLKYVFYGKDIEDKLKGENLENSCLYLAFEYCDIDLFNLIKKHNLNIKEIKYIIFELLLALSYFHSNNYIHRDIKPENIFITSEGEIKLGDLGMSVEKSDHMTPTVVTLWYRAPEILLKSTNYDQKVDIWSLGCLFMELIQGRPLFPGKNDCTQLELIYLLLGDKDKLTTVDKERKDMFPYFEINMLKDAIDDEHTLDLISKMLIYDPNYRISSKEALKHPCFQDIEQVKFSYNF
The test is described as follows: biochemical. The following applies: hits below 1 uM; read-out: PK6 IC50.

Another test addresses PKG (Plasmodium falciparum, UniProt Q8I719). The test can be described thus: PKG IC50 (supplementary data file of hits). The test is classed as biochemical. The text has this: Supplement pone.0149996.s003.xls, sheet "combined_1_sorted"
For another test, the system named is HepG2 cells. The note with it: HepG2 cells; downloaded from ChEMBL ref F.J. Gamo et al., Nature 2010; cited from earlier work.
In the next test the test system is P. falciparum 3D7 cells. The note with it: P. falciparum 3D7; downloaded from ChEMBL ref F.J. Gamo et al., Nature 2010; cited from earlier work.
The next test concerns DD2. On the set-up: method as in F.J. Gamo et al., Nature 2010. The following applies: P. falciparum Dd2; downloaded from ChEMBL ref F.J. Gamo et al., Nature 2010; cited from earlier work.
The next test has as its system 3D7 PFLDH. On the set-up: method as in F.J. Gamo et al., Nature 2010. The following applies: downloaded from ChEMBL ref F.J. Gamo et al., Nature 2010; cited from earlier work.

Some results are limits rather than exact numbers.

Results on 14 compounds are retold here after article PMC4774911, “Biochemical Screening of Five Protein Kinases from Plasmodium falciparum against 14,000 Cell-Active Compounds” (PLoS ONE, 2016).

In general, IC50 refers to the concentration needed to halve the response being measured.

Sequence of PKG (Q8I719 whole entry): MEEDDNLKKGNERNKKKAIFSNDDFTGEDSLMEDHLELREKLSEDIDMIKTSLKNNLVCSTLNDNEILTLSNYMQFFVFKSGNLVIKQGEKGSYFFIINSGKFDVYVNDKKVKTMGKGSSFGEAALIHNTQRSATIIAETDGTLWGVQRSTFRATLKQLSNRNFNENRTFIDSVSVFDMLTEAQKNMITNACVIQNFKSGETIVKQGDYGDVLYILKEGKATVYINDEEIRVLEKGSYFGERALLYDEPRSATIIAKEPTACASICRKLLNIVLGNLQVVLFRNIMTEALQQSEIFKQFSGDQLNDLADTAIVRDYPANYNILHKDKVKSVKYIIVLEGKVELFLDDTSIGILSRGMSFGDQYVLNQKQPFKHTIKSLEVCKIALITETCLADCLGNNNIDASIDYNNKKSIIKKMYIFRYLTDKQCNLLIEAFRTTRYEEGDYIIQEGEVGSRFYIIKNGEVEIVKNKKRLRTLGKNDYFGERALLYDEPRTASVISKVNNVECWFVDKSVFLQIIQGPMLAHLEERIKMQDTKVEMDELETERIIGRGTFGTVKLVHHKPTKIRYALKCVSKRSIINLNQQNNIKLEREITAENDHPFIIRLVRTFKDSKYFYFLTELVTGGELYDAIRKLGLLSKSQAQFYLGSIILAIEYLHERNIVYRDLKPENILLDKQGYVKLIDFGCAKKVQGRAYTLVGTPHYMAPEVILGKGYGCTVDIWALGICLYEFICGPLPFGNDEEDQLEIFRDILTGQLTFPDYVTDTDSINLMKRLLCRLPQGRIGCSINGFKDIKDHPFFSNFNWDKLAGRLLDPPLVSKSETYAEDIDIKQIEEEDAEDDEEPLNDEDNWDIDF

Take `Cc1ccc(-n2nc(C(C)(C)C)cc2NC(=O)Nc2ccc(OCCN3CCOCC3)c3ccccc23)cc1` [BIRB796]: the “Inhibition of MAPK2 (tested as possible control inhibitor)” value (“Inhibition of MAPK2” for short) in test [1] is “None gave consistent inhibition”.

On to `O=C1Nc2ccc3ncsc3c2/C1=C/Nc1ccc(S(=O)(=O)Nc2ccccn2)cc1` [GW8510], for which the “Inhibition of MAPK2” value in test [1] is “None gave consistent inhibition”.

For `CC(=O)Nc1cccc(Nc2nccc(-c3c(-c4cccc(NC(=O)c5c(F)cccc5F)c4)nn4ncccc34)n2)c1` [TCMDC-135548], the IC50 in [2] amounted to 15 nM; in [3], 26 nM; in test [4] it was 144 nM; against PKG, 524 nM. Also, in the test on HepG2 cells, the PCT_INHIB_HEPG2 is listed as 83. Also, in the test with P. falciparum 3D7 cells, the PCT_IHB_3D7 is 96. In addition, the pXC50_3D7 with P. falciparum 3D7 cells is given as 6.736. Moreover, the PCT_INHB_DD2 in the test on DD2 was 51. In the test on 3D7 PFLDH, the PCT_INHIB_3D7_PFLDH is 5.

For `CC(c1cccc(Nc2nccc(-c3c(-c4cccc(NC(=O)c5c(F)cccc5F)c4)nn4ncccc34)n2)c1)S(C)(=O)=O` (stereo not drawn) [TCMDC-135696], the IC50 in [2] was 95 nM; in [3], 24 nM; in test [4], 375 nM; at PKG, more than 10000 nM. For the same compound, the PCT_INHIB_HEPG2 with HepG2 cells is 79. Besides, the PCT_IHB_3D7 in the test on P. falciparum 3D7 cells is recorded as 98. In addition, the pXC50_3D7 in the test with P. falciparum 3D7 cells was 7.341. Besides, the PCT_INHB_DD2 in the test with DD2 is recorded as 98. For the same compound, the PCT_INHIB_3D7_PFLDH in the test on 3D7 PFLDH is listed as 4.

As for `CS(=O)(=O)Cc1ccc(Nc2nccc(-c3c(-c4cccc(C(=O)Nc5c(F)cccc5F)c4)nn4ccccc34)n2)cc1` [TCMDC-135742], the IC50 in test [2] was 50 nM; in test [3] it was 65 nM; in test [4], 105 nM; against PKG, more than 10000 nM. Besides, the PCT_INHIB_HEPG2 with HepG2 cells is recorded as 85. Moreover, the PCT_IHB_3D7 with P. falciparum 3D7 cells is 96. In addition, the pXC50_3D7 in the test with P. falciparum 3D7 cells is recorded as 6.274. In addition, the PCT_INHB_DD2 with DD2 is 92. In addition, the PCT_INHIB_3D7_PFLDH in the test on 3D7 PFLDH is on record as 0.

`CS(=O)(=O)Cc1ccc(Nc2nccc(-c3c(-c4cccc(NC(=O)C5CCCCC5)c4)nn4ncccc34)n2)cc1` [TCMDC-135812]: the half-maximal inhibitory concentration (IC50) was 37 nM in test [2], 67 nM in test [3], 139 nM in [4] and more than 10000 nM on PKG. Moreover, in the test on HepG2 cells, the PCT_INHIB_HEPG2 is 31. Moreover, the PCT_IHB_3D7 with P. falciparum 3D7 cells is 98. The pXC50_3D7 with P. falciparum 3D7 cells is 6.697. Also, in the test on DD2, the PCT_INHB_DD2 was 99. For the same compound, the PCT_INHIB_3D7_PFLDH in the test with 3D7 PFLDH is reported as 0.

For the compound `CCN(CC)CCCOc1ccc(Nc2nccc(-c3c(-c4cccc(NC(=O)c5c(F)cccc5F)c4)nn4ccccc34)n2)cc1F` [TCMDC-135920], the IC50 is 429 nM in [2], 86 nM in [3], 302 nM in [4] and 131 nM on PKG. Moreover, the PCT_INHIB_HEPG2 in the test on HepG2 cells is on record as 86. Besides, the PCT_IHB_3D7 in the test on P. falciparum 3D7 cells is on record as 100. Also, the pXC50_3D7 in the test on P. falciparum 3D7 cells is listed as 6.39. Moreover, in the test on DD2, the PCT_INHB_DD2 is reported as 99. The PCT_INHIB_3D7_PFLDH with 3D7 PFLDH is given as 0.

For `COCCOc1ccc(Nc2nccc(-c3c(-c4cccc(NC(=O)c5c(F)cccc5F)c4)nn4ccccc34)n2)cc1Cl` [TCMDC-135955], the IC50 in test [2] was 152 nM; in test [3], 853 nM; against PKG, more than 10000 nM. Further, the PCT_INHIB_HEPG2 in the test with HepG2 cells is reported as 53. The PCT_IHB_3D7 in the test on P. falciparum 3D7 cells was 99. Also, the pXC50_3D7 with P. falciparum 3D7 cells is reported as 6.448. Moreover, the PCT_INHB_DD2 in the test with DD2 is on record as 97. In addition, the PCT_INHIB_3D7_PFLDH with 3D7 PFLDH is recorded as 4.

Regarding `CCn1c(-c2nonc2N)nc2c(-c3cccc(NC(=O)Nc4cccc(C(F)(F)F)c4)c3)ncc(OCCCN)c21.O=C(O)C(F)(F)F` [TCMDC-136178], the IC50 in test [2] is 15 nM; in test [3], 342 nM; on PKG it was 2080 nM. Also, the PCT_INHIB_HEPG2 in the test on HepG2 cells is listed as 21. Moreover, in the test on P. falciparum 3D7 cells, the PCT_IHB_3D7 is 95. Also, the pXC50_3D7 in the test on P. falciparum 3D7 cells is given as 6.014. Moreover, the PCT_INHB_DD2 in the test with DD2 was 70. Also, the PCT_INHIB_3D7_PFLDH with 3D7 PFLDH is 2.

Take `CCn1c(-c2nonc2N)nc2c(-c3cccc(NC(=O)Nc4ccccc4OC)c3)ncc(OCCCN)c21.O=C(O)C(F)(F)F` [TCMDC-136190]: the IC50 is 32 nM in test [2], 706 nM in test [3] and 783 nM against PKG. For the same compound, in the test with HepG2 cells, the PCT_INHIB_HEPG2 is given as 84. Besides, in the test with P. falciparum 3D7 cells, the PCT_IHB_3D7 is on record as 92. For the same compound, in the test with P. falciparum 3D7 cells, the pXC50_3D7 was 5.998. Moreover, in the test with DD2, the PCT_INHB_DD2 was 58. The PCT_INHIB_3D7_PFLDH in the test with 3D7 PFLDH is on record as 0.

Take `CCn1c(-c2nonc2N)nc2c(-c3cccc(NC(=O)Nc4ccccc4Cl)c3)ncc(OCCCN)c21.O=C(O)C(F)(F)F` [TCMDC-136192]: the values for the IC50 (in test [2]; in [3]; at PKG) were 72 nM, 138 nM and 566 nM, respectively. In addition, the PCT_INHIB_HEPG2 in the test on HepG2 cells is on record as 2. The PCT_IHB_3D7 with P. falciparum 3D7 cells is 99. The pXC50_3D7 in the test with P. falciparum 3D7 cells is reported as 6.173. Besides, the PCT_INHB_DD2 in the test with DD2 is 74. In addition, the PCT_INHIB_3D7_PFLDH in the test on 3D7 PFLDH is 0.

Take `CC(C)(C)CNCC(C)(C)c1nc(-c2ccc(Cl)c(O)c2)c(-c2ccncc2)[nH]1.Cl` [TCMDC-140549]: the values for the IC50 (in test [2]; in test [3]; against PKG) were 159 nM, 637 nM and more than 10000 nM, respectively. For the same compound, the PCT_INHIB_HEPG2 with HepG2 cells is reported as 42. Also, in the test on P. falciparum 3D7 cells, the PCT_IHB_3D7 is recorded as 100. Also, the pXC50_3D7 with P. falciparum 3D7 cells was 6.221. Moreover, in the test on DD2, the PCT_INHB_DD2 is 98. Further, the PCT_INHIB_3D7_PFLDH with 3D7 PFLDH was 5.

`CC(C)(CN)c1cc(-c2ccc(Cl)c(O)c2)c(-c2ccncc2)o1.Cl` [TCMDC-141334]: the IC50 in test [2] came out at 13 nM; in test [3], 433 nM; on PKG it was 42 nM. Moreover, the PCT_INHIB_HEPG2 in the test with HepG2 cells is reported as 44. Moreover, the PCT_IHB_3D7 with P. falciparum 3D7 cells is 92. For the same compound, in the test with P. falciparum 3D7 cells, the pXC50_3D7 is given as 5.944. The PCT_INHB_DD2 in the test with DD2 is on record as 97. The PCT_INHIB_3D7_PFLDH in the test with 3D7 PFLDH is reported as 7.

In the case of `NC1=NC(=O)/C(=C2\CCNC(=O)c3[nH]c(Br)cc32)N1` [hymenialdisine], the “Inhibition of MAPK2” value in test [1] is “None gave consistent inhibition”.
